Reference: publication PMC9834766, “Low-molecular-weight anti-HIV-1 agents targeting HIV-1 capsid proteins” (RSC Advances, 2023)
Like-named read-outs stand apart in the source and are kept apart here.

How the values were obtained:
HIV = details: cited from earlier work
[1] = Cytotoxicity: reduction of the viability of MT-4 cells, MTT assay; format: cell-based; details: human
Protocol: (§1) The anti-HIV activity of the synthesized compounds was assessed based on their protection against HIV-1 (NL4-3 strain)-induced cytopathogenicity in MT-4 cells using an MTT assay.[29–33] The cytotoxicity of these compounds was determined based on reduction of the viability of MT-4 cells, as determined by an MTT assay. […] MKN-3 (2) was designed by in silico screening in the same way as MKN-1 (1), and in terms of ligand efficacy MKN-3 (2), with a London dG value of −9.555, has a higher binding affinity than MKN-1 (1), with a London dG value of −9.134, for a CA molecule. The anti-HIV activity of MKN-3 (2) however, is remarkably lower than that of MKN-1 (1). The reason for this might be the poor cell membrane permeability of MKN-3 (2), which therefore could not penetrate the cells. In general, the hydrophobicity of compounds is correlated to their cell membrane permeability. […] We investigated the design of derivatives more hydrophobic than MKN-3 (2). For the design of MKN-3 (2) derivatives, the docking model of MKN-3 (2) and a CA protein was constructed, and a site in the MKN-3 (2) molecule, whose relationship with the interaction with a CA protein is unknown, was sought (Fig. 3). […] Consequently, this amino group was modified by alkylation or amidation, and was converted into a methylene group. Six derivatives (17, 18, 19, TKB063 (25), 26 and 27), with octanoyl, 2-propylpentanoyl, 2-phenylacetyl, i-propyl, n-heptyl or benzyl groups, respectively on the secondary nitrogen atom of the homopiperazine ring of MKN-3 (2), were synthesized. A derivative (29), with a methylene group in place of the secondary amine of the homopiperazine ring, was prepared. […] It was assumed that the anti-HIV activity of these MKN-3 (2) derivatives was increased as a result of their improved hydrophobicity and cell membrane permeability. If the hydrophobicity of such derivatives is higher (log P > 2), the cytotoxicity is higher (CC50 < 10 μM). […] Thus, TKB063 (25) can be seen to have some advantages.
(§2) The inhibitory activity of test compounds against X4-HIV-1 (NL4-3 strain)-induced cytopathogenicity in MT-4 cells,[83] which are maintained in RPMI-1640 containing 10% FBS, was assessed by an MTT assay. Various concentrations of test compound solutions were added to HIV-1-infected MT-4 cells at multiplicity of infection (MOI) of 0.001, and placed in wells of a 96-well microplate. The test compounds and the reference compounds, e.g. AZT, were diluted by factors of two or five, respectively. After 5 days' incubation at 37 °C in a CO2 incubator, the number of viable cells was determined by the MTT assay. Cytotoxicities of the test compounds were determined based on reduction of the viability of MT-4 cells measured in the MTT assay. A reverse transcriptase inhibitor, AZT, was purchased from Sigma Aldrich and employed as a positive control compound with anti-HIV activity.

HIV-1 (NL4-3 strain) = assay: Protection against HIV-1 (NL4-3 strain)-induced cytopathogenicity in MT-4 cells, MTT assay; format: cell-based; details: 50% protection from HIV-1 (NL4-3 strain)-induced cytopathogenicity in MT-4 cells
Protocol: as §1
For virus preparation, 293T/17 cells (Invitrogen) maintained in Dulbecco's modified Eagle medium (DMEM) containing 10% FBS, in a T-75 flask were transfected with 10 μg of the pNL4-3 construct by the calcium phosphate method. The supernatant was collected 48 h after transfection, passed through a 0.45 μm filter, and stored at −80 °C as a stock virus.
as §2

MT-4 cells = assay: Cytotoxicity: reduction of the viability of MT-4 cells, MTT assay; format: cell-based; details: Table 3; 50% reduction of the viability of MT-4 cells
Protocol: as §1, §2

[2] = Table 2, 50% reduction of the viability of MT-4 cells, read-out: CC50
[3] = Human immunodeficiency virus 1, NL43, MT4, Table 2
[4] = Human immunodeficiency virus 1, NL43, MT4, Table 3
[5] = Table 4, 50% reduction of the viability of MT-4 cells, read-out: CC50
[6] = Human immunodeficiency virus 1, NL43, MT4, Table 4

For “Enfuvirtide (T-20): Peptide, fusion inhibitor”, the IC50/EC50 (HIV; Fusion inhibitor, ref [66]) is listed as 0.003 µM.

`CCCCCCCC(=O)N1CCCN([C@H](CCSC)C(=O)N2CCNCC2c2c[nH]c3ccccc23)CC1` (stereo partly drawn) [Compound 17] gave a CC50 at 5 days [1, 2] of 8.8 µM and an EC50 (HIV-1 (NL4-3 strain); [3]) of 6 µM.

For “Ibalizumab: Antibody, CD4 binding inhibitor”, the IC50/EC50 (HIV; CD4 binding inhibitor, ref [68]) is given as 0.00029 µM.

In the case of `CSCC[C@H](C(=O)N1CCNCC1c1c[nH]c2ccccc12)N1CCCCCC1` (stereo partly drawn) [Compound 29], the CC50 at 5 days [1, 2] is reported as 32 µM and the EC50 (HIV-1 (NL4-3 strain); [3]) is reported as 10 µM.

For `C[C@H]1CO[C@@H]2Cn3cc(C(=O)NCc4ccc(F)cc4F)c(=O)c(O)c3C(=O)N12` [Cabotegravir], the IC50/EC50 (HIV; Integrase inhibitor, ref [70]) is listed as 0.00025 µM.

For `CC(C)(C#Cc1ccc(-c2ccc(Cl)c3c(NS(C)(=O)=O)nn(CC(F)(F)F)c23)c([C@H](Cc2cc(F)cc(F)c2)NC(=O)Cn2nc(C(F)(F)F)c3c2C(F)(F)[C@@H]2C[C@H]32)n1)S(C)(=O)=O` [Lenacapavir], the IC50/EC50 (HIV; Capsid inhibitor, ref [71]) is given as 0.0001 µM.

With `CSCC[C@H](C)OC(=O)[C@@H](N)c1ccccc1-c1c[nH]c2ccccc12` [MKN-1 (1), reference compound] the CC50 at 5 days [1, 2] was 15 µM, the EC50 (HIV-1 (NL4-3 strain); [3]) was 2.2 µM and the EC50 (HIV-1 (NL4-3 strain); [4]) was 2.3 µM.

With `CCN1CCCN([C@H](CCSC)C(=O)N2CCNCC2c2c[nH]c3ccccc23)CC1` (stereo partly drawn) [TON01 (36)] the CC50 at 5 days [1, 5] was over 50 µM and the EC50 (HIV-1 (NL4-3 strain); [6]) was 20 µM.

In the case of `CSCCC(C(=O)N1CCNCC1c1c[nH]c2ccccc12)N1CCCN(C(C)C)CC1` (stereo not drawn) [TKB063B (25B)], the CC50 (MT-4 cells) is reported as over 50 µM and the EC50 (HIV-1 (NL4-3 strain); Table 3) is reported as 7.4 µM.

In the case of `CCCCCCCN1CCCN([C@H](CCSC)C(=O)N2CCNCC2c2c[nH]c3ccccc23)CC1` (stereo partly drawn) [Compound 26], the CC50 at 5 days [1, 2] is reported as 4.4 µM and the EC50 (HIV-1 (NL4-3 strain); [3]) is reported as 2.6 µM.

`CCC(C)N1CCCN([C@H](CCSC)C(=O)N2CCNCC2c2c[nH]c3ccccc23)CC1` (stereo partly drawn) [TON03 (38)] gave a CC50 at 5 days [1, 5] of over 50 µM and an EC50 (HIV-1 (NL4-3 strain); [6]) of 6.3 µM.

`CSCC[C@H](C(=O)N1CCNCC1c1c[nH]c2ccccc12)N1CCCN(C(C)C)CC1` (stereo partly drawn) [TKB063 (25)] showed a CC50 at 5 days [1, 2] of over 50 µM, an EC50 (HIV-1 (NL4-3 strain); [3]) of 4.5 µM and an EC50 (HIV-1 (NL4-3 strain); [4]) of 4.8 µM. For the same compound, the EC50 (HIV-1 (NL4-3 strain); [6]) was 9.5 µM.

For `CCCN1CCCN([C@H](CCSC)C(=O)N2CCNCC2c2c[nH]c3ccccc23)CC1` (stereo partly drawn) [TON02 (37)], the CC50 at 5 days [1, 5] was over 50 µM and the EC50 (HIV-1 (NL4-3 strain); [6]) was 8 µM.

Work on `CCCC(CCC)C(=O)N1CCCN([C@H](CCSC)C(=O)N2CCNCC2c2c[nH]c3ccccc23)CC1` (stereo partly drawn) [Compound 18] yielded a CC50 at 5 days [1, 2] of 9.1 µM and an EC50 (HIV-1 (NL4-3 strain); [3]) of over 9.1 µM.

For `COc1cnc(-n2cnc(C)n2)c2c1c(C(=O)C(=O)N1CCN(C(=O)c3ccccc3)CC1)cn2COP(=O)(O)O` [Fostemsavir], the IC50/EC50 (HIV; Entry inhibitor, ref [67]) is listed as 0.0007 µM.

In the case of `CSCCC(C(=O)N1CCNCC1c1c[nH]c2ccccc12)N1CCCNCC1` (stereo not drawn) [MKN-3 (2)], the CC50 at 5 days [1, 2] is reported as over 50 µM, the EC50 (HIV-1 (NL4-3 strain); [3]) is reported as 42 µM and the EC50 (HIV-1 (NL4-3 strain); [4]) is reported as over 50 µM.

`CSCCC(C(=O)N1CCNCC1c1c[nH]c2ccccc12)N1CCCN(C(C)C)CC1` (stereo not drawn) [TKB063A (25A)] gave a CC50 at 5 days ([1]; Table 3, 50% reduction of the viability of MT-4 cells, read-out: CC50) of over 50 µM and an EC50 (HIV-1 (NL4-3 strain); [4]) of 5 µM.

In the case of Maraviroc, the IC90/EC90 (HIV; CCR5 antagonist, ref [65]) is listed as “(1.0 nM)”.

Work on `CSCC[C@H](C(=O)N1CCNCC1c1c[nH]c2ccccc12)N1CCCN(Cc2ccccc2)CC1` (stereo partly drawn) [Compound 27] yielded a CC50 at 5 days [1, 2] of 9 µM and an EC50 (HIV-1 (NL4-3 strain); [3]) of 2.4 µM.

For `C=C(C)[C@@H]1CC[C@]2(NCCN3CCS(=O)(=O)CC3)CC[C@]3(C)[C@H](CC[C@@H]4[C@@]5(C)CC=C(C6=CC[C@@](CF)(C(=O)O)CC6)C(C)(C)[C@@H]5CC[C@]43C)[C@@H]12` [GSK3640254], the IC90/EC90 (HIV; Maturation inhibitor, ref [69]) is given as “(33 nM)”.

In the case of `Cc1cn([C@H]2C[C@H](N=[N+]=[N-])[C@@H](CO)O2)c(=O)[nH]c1=O` [AZT, reference compound], the EC50 (HIV-1 (NL4-3 strain); Table 2) is reported as 0.021 µM, the EC50 (HIV-1 (NL4-3 strain); Table 3) is reported as 0.025 µM and the EC50 (HIV-1 (NL4-3 strain); Table 4) is reported as 0.04 µM.

In the case of `CSCC[C@H](C(=O)N1CCNCC1c1c[nH]c2ccccc12)N1CCCN(C(=O)Cc2ccccc2)CC1` (stereo partly drawn) [Compound 19], the CC50 at 5 days [1] is reported as 33 µM and the EC50 (HIV-1 (NL4-3 strain); [3]) is reported as 15 µM.
